Values of other authors in PMC5677520 (Journal of medicinal chemistry, 2017).

Details: result in words

Compound	passive permeabilities
CC[C@H](C)[C@@H]1NC(=O)c2csc(n2)[C@@H](C)NC(=O)[C@H]2N=C(O[C@@H]2C)[C@H](C(C)C)NC(=O)c2csc(n2)[C@@H](Cc2ccccc2)NC(=O)[C@H]2N=C1O[C@@H]2C [patellamide C]	druglike
cylindrocyclin	druglike
